Assay results as given in US11076594B2, “Pyrazolone compound or salt thereof, preparation method therefor, herbicide composition and use thereof” (QINGDAO KINGAGROOT CHEMICAL COMPOUNDS CO., LTD., priority 2015, dated 2021).

Experiments:
Assay type in all cases: in vivo
wheat [1] = test: wheat field test, crop selectivity, greenhouse spray at 4 leaf stage; details: sprayed at 4 leaf stage, 4 weeks after treatment
Procedure: (§1) The activity level standard of harmful plant destruction (i.e. growth control rate) is as follows:
(§2) The above described growth control rate is fresh weight control rate.
(§3) The seeds of alopecurus japonicas, flixweed, shepherd's purse, corn gromwell, chickweed, beckmannia syzigachne, and annual ryegrass and wheat seeds were put into a plastic pot loaded with soil, and then covered with 0.5-2 cm soil, the seeds were allowed to grow in good greenhouse environment. The test plants were treated at 4 leaf stage 2-3 weeks after sowing. The test compounds of the present invention were dissolved in acetone respectively, then added with methyl oleate emulsion and diluted by certain amount of water to certain concentration. The solution was sprayed to the plant with a sprayer. Then the plants were cultured for 4 weeks in greenhouse.

wheat [2] = test: post-emergence stage experiment, crop (Table 1); details: post-emergence spray at 4-5 leaf stage, 250 g/ha active ingredient with 450 kg/ha water, rated after 3 weeks in greenhouse
How it was run: (§4)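 Fresh-weight reduction is recorded three weeks after a sprayer applies the acetone/Tween 80 aqueous compound solution to greenhouse-grown plants at the 4-5 leaf stage.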

corn = test: post-emergence stage experiment, crop (Table 1); details: post-emergence spray at 4-5 leaf stage, 250 g/ha active ingredient with 450 kg/ha water, rated after 3 weeks in greenhouse
How it was run: as §4

alopecurus japonicas = test: wheat field resistant weed control, greenhouse spray at 4 leaf stage; design: key: Level 10: completely dead; Level 9: above 95% growth control rate; Level 8: above 90% growth control rate; Level 7: above 80% growth control rate; Level 6: above 70% growth control rate; Level 5: above 60% growth control rate; Level 4: above 50% growth control rate; Level 3: above 20% growth control rate; Level 2: 5%-20% growth control rate; Level 1: below 5% growth control rate; details: sprayed at 4 leaf stage, 4 weeks after treatment, resistant to ALS and ACCase inhibitor herbicides
Procedure: as §1, §2, §3

rice = test: post-emergence stage experiment, crop (Table 1); details: post-emergence spray at 4-5 leaf stage, 250 g/ha active ingredient with 450 kg/ha water, rated after 3 weeks in greenhouse
How it was run: as §4

foxtail = test: weed control effect in post-emergence stage (Table 1); design: key: Level 10: completely dead; Level 9: above 95% growth control rate; Level 8: above 90% growth control rate; Level 7: above 80% growth control rate; Level 6: above 70% growth control rate; Level 5: above 60% growth control rate; Level 4: above 50% growth control rate; Level 3: above 20% growth control rate; Level 2: 5%-20% growth control rate; Level 1: below 5% growth control rate; details: post-emergence spray at 4-5 leaf stage, 250 g/ha active ingredient with 450 kg/ha water, rated after 3 weeks in greenhouse
How it was run: as §4

Indian mallow = test: as above; design: key: Level 10: completely dead; Level 9: above 95% growth control rate; Level 8: above 90% growth control rate; Level 7: above 80% growth control rate; Level 6: above 70% growth control rate; Level 5: above 60% growth control rate; Level 4: above 50% growth control rate; Level 3: above 20% growth control rate; Level 2: 5%-20% growth control rate; Level 1: below 5% growth control rate; details: post-emergence spray at 4-5 leaf stage, 250 g/ha active ingredient with 450 kg/ha water, rated after 3 weeks in greenhouse
How it was run: as §4

crab grass = test: as above; design: key: Level 10: completely dead; Level 9: above 95% growth control rate; Level 8: above 90% growth control rate; Level 7: above 80% growth control rate; Level 6: above 70% growth control rate; Level 5: above 60% growth control rate; Level 4: above 50% growth control rate; Level 3: above 20% growth control rate; Level 2: 5%-20% growth control rate; Level 1: below 5% growth control rate; details: post-emergence spray at 4-5 leaf stage, 250 g/ha active ingredient with 450 kg/ha water, rated after 3 weeks in greenhouse
How it was run: as §4

echinochloa = test: as above; design: key: Level 10: completely dead; Level 9: above 95% growth control rate; Level 8: above 90% growth control rate; Level 7: above 80% growth control rate; Level 6: above 70% growth control rate; Level 5: above 60% growth control rate; Level 4: above 50% growth control rate; Level 3: above 20% growth control rate; Level 2: 5%-20% growth control rate; Level 1: below 5% growth control rate; details: post-emergence spray at 4-5 leaf stage, 250 g/ha active ingredient with 450 kg/ha water, rated after 3 weeks in greenhouse
How it was run: as §4

bidens bipinnata = test: as above; design: key: Level 10: completely dead; Level 9: above 95% growth control rate; Level 8: above 90% growth control rate; Level 7: above 80% growth control rate; Level 6: above 70% growth control rate; Level 5: above 60% growth control rate; Level 4: above 50% growth control rate; Level 3: above 20% growth control rate; Level 2: 5%-20% growth control rate; Level 1: below 5% growth control rate; details: post-emergence spray at 4-5 leaf stage, 250 g/ha active ingredient with 450 kg/ha water, rated after 3 weeks in greenhouse
How it was run: as §4

rorippa indica = test: as above; design: key: Level 10: completely dead; Level 9: above 95% growth control rate; Level 8: above 90% growth control rate; Level 7: above 80% growth control rate; Level 6: above 70% growth control rate; Level 5: above 60% growth control rate; Level 4: above 50% growth control rate; Level 3: above 20% growth control rate; Level 2: 5%-20% growth control rate; Level 1: below 5% growth control rate; details: post-emergence spray at 4-5 leaf stage, 250 g/ha active ingredient with 450 kg/ha water, rated after 3 weeks in greenhouse
How it was run: as §4

Row | SMILES | Wheat (activity level, crop damage) (wheat [1]; 2 g/mu) | Wheat (activity level, crop damage) (wheat [1]; 4 g/mu) | Wheat (activity level, crop damage) (wheat [1]; 8 g/mu) | Wheat (activity level, crop damage) (wheat [1]; 16 g/mu) | Wheat (activity level, crop damage) (wheat [1]; 32 g/mu) | effect on crop, Wheat (level) (wheat [2]) | effect on crop, Corn (level) (corn) | Alopecurus japonicas weed controlling effect (activity level) (alopecurus japonicas; 1 g/mu) | Alopecurus japonicas weed controlling effect (activity level) (alopecurus japonicas; 2 g/mu) | Alopecurus japonicas weed controlling effect (activity level) (alopecurus japonicas; 4 g/mu) | Alopecurus japonicas weed controlling effect (activity level) (alopecurus japonicas; 8 g/mu) | effect on crop, Rice (level) (rice) | weed control effect, Green foxtail (level) (foxtail) | weed control effect, Indian mallow (level) (Indian mallow) | weed control effect, Crab grass (level) (crab grass) | weed control effect, Echinochloa (level) (echinochloa) | weed control effect, Bidens bipinnata (level) (bidens bipinnata) | weed control effect, Rorippa indica (level) (rorippa indica)
1 | CCOc1c(C(=O)Oc2c(C(=O)c3ccc(C(F)(F)F)c(N4CCCC4=O)c3Cl)c(C)nn2C)cnn1C [Compound 021] | 0 | 1 (Level 1: below 5% growth control rate) | 4 (Level 4: above 50% growth control rate) | 4 (Level 4: above 50% growth control rate) | 4 (Level 4: above 50% growth control rate) | 3 (Level 3: above 20% growth control rate) | 3 (Level 3: above 20% growth control rate) | 2 (Level 2: 5%-20% growth control rate) | 6 (Level 6: above 70% growth control rate) | 10 | 10 | 5 (Level 5: above 60% growth control rate) | 10 | 9 (Level 9: above 95% growth control rate) | 7 (Level 7: above 80% growth control rate) | 6 (Level 6: above 70% growth control rate) |  | 
2 | CCOc1c(C(=O)Oc2c(C(=O)c3ccc(C(F)(F)F)c(N4CCCC4=O)c3Cl)c(C3CC3)nn2C)cnn1C [Compound 026] | 1 (Level 1: below 5% growth control rate) | 3 (Level 3: above 20% growth control rate) | 8 (Level 8: above 90% growth control rate) | 8 (Level 8: above 90% growth control rate) | 8 (Level 8: above 90% growth control rate) | 4 (Level 4: above 50% growth control rate) | 4 (Level 4: above 50% growth control rate) | 8 (Level 8: above 90% growth control rate) | 10 | 10 | 10 | 8 (Level 8: above 90% growth control rate) | 10 | 10 | 10 | 6 (Level 6: above 70% growth control rate) | 5 (Level 5: above 60% growth control rate) | 
3 | Cc1nn(C)cc1C(=O)Oc1c(C(=O)c2ccc(C(F)(F)F)c(N3CCCC3=O)c2Cl)c(C2CC2)nn1C [Compound 027] | 1 (Level 1: below 5% growth control rate) | 4 (Level 4: above 50% growth control rate) | 4 (Level 4: above 50% growth control rate) | 4 (Level 4: above 50% growth control rate) | 5 (Level 5: above 60% growth control rate) | 3 (Level 3: above 20% growth control rate) | 4 (Level 4: above 50% growth control rate) | 6 (Level 6: above 70% growth control rate) | 10 | 10 | 10 | 7 (Level 7: above 80% growth control rate) | 10 | 10 | 8 (Level 8: above 90% growth control rate) | 7 (Level 7: above 80% growth control rate) | 8 (Level 8: above 90% growth control rate) | 7 (Level 7: above 80% growth control rate)
4 | Cn1cc(C(=O)Oc2c(C(=O)c3ccc(C(F)(F)F)c(N4CCCCC4=O)c3Cl)c(C3CC3)nn2C)cn1 [Compound 049] | 0 | 1 (Level 1: below 5% growth control rate) | 1 (Level 1: below 5% growth control rate) | 3 (Level 3: above 20% growth control rate) | 3 (Level 3: above 20% growth control rate) | 3 (Level 3: above 20% growth control rate) | 2 (Level 2: 5%-20% growth control rate) | 8 (Level 8: above 90% growth control rate) | 9 (Level 9: above 95% growth control rate) | 10 | 10 | 7 (Level 7: above 80% growth control rate) | 9 (Level 9: above 95% growth control rate) | 10 | 6 (Level 6: above 70% growth control rate) | 6 (Level 6: above 70% growth control rate) | 4 (Level 4: above 50% growth control rate) | 10
